Laboratory results published in patent publication US20250195521A1 (Revolution Medicines, Inc., priority 2020, published 2025).

Assays:
[1] = tested on: Capan-1 cells (K-Ras G12V); assay: CellTiter-Glo cell viability, Capan-1; format: cell-based, human; conditions: Homo sapiens, CAPAN-1, 120 h, K-Ras G12V, 5-day treatment; read-out: Capan-1 Cell Viability IC50
In short: (§1)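 Viability read by luminescence on day 5 after direct compound addition to cells, following ~30 min room-temperature equilibration. Values expressed as percent of mean DMSO signal, curves fitted with a four-parameter logistic model.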

KRAS G12C = KRAS G12C (Homo sapiens (Human), UniProt P01116+P62937, G12C); assay: Ras-Raf disruption/FRET/MOA assay (BRAF RBD, Cyclophilin A); format: biochemical; conditions: read-out: KRAS G12C FRET IC50
KRAS G12C, sequence (P01116-2 other isoform, or with tags, fused parts or gaps G12C): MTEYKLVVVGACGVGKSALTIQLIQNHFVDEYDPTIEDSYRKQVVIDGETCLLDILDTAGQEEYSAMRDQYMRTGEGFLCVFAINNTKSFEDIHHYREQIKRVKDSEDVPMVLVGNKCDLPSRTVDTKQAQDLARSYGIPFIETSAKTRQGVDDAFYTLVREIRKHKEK
KRAS G12C, sequence (P62937 whole entry): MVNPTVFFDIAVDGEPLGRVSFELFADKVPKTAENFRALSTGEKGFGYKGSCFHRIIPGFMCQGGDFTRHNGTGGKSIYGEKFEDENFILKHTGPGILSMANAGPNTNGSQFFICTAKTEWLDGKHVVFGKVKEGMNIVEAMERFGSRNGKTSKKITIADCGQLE
In short: (§2)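 TR-FRET readout: anti-His Eu-W1024 (10 nM) and anti-GST allophycocyanin (50 nM) added after 3 h, 25° C compound incubation, then 1.5 h more. Decrease in FRET ratio versus DMSO wells marks Ras:RAF disruption; IC50 reported.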

KRAS G12D = KRAS G12D (Homo sapiens (Human), UniProt P01116+P62937, G12D); assay: as above; format: biochemical; conditions: read-out: KRAS G12D FRET IC50
KRAS G12D, sequence (P01116 other isoform, or with tags, fused parts or gaps G12D): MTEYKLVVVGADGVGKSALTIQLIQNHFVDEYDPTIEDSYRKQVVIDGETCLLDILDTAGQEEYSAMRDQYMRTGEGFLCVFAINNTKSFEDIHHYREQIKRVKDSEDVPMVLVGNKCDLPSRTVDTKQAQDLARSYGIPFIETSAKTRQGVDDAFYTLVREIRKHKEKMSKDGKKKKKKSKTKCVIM
KRAS G12D, sequence (P62937 whole entry): as the sequence (P62937 whole entry) above
In short: as §2

KRAS G12S = KRAS G12S (Homo sapiens (Human), UniProt P01116+P62937, G12S); assay: as above; format: biochemical; conditions: read-out: KRAS G12S FRET IC50
KRAS G12S, sequence (P01116 other isoform, or with tags, fused parts or gaps G12S): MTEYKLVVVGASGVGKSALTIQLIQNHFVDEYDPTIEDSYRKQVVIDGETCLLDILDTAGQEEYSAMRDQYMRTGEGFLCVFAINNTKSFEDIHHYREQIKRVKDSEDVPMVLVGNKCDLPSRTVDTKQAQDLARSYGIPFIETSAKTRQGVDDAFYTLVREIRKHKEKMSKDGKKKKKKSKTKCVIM
KRAS G12S, sequence (P62937 whole entry): as the sequence (P62937 whole entry) above
In short: as §2

KRAS G12V = KRAS G12V (Homo sapiens (Human), UniProt P01116+P62937, G12V); assay: as above; format: biochemical; conditions: read-out: KRAS G12V FRET IC50
KRAS G12V, sequence (P01116 other isoform, or with tags, fused parts or gaps G12V): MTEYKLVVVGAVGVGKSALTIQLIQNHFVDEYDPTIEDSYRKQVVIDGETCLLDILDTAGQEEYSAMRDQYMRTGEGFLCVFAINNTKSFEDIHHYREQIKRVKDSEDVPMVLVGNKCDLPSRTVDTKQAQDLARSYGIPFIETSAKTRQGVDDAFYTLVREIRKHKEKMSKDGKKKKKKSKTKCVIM
KRAS G12V, sequence (P62937 whole entry): as the sequence (P62937 whole entry) above
In short: as §2

KRAS G13C = KRAS G13C (Homo sapiens (Human), UniProt P01116+P62937, G13C); assay: as above; format: biochemical; conditions: read-out: KRAS G13C FRET IC50
KRAS G13C, sequence (P01116 other isoform, or with tags, fused parts or gaps G13C): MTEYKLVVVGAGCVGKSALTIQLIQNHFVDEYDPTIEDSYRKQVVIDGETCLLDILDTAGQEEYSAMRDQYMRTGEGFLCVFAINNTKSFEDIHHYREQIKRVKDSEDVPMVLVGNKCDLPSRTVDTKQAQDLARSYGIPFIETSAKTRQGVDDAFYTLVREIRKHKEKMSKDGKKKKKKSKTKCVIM
KRAS G13C, sequence (P62937 whole entry): as the sequence (P62937 whole entry) above
In short: as §2

KRAS G13D = KRAS G13D (Homo sapiens (Human), UniProt P01116+P62937, G13D); assay: as above; format: biochemical; conditions: read-out: KRAS G13D FRET data IC50
KRAS G13D, sequence (P01116 other isoform, or with tags, fused parts or gaps G13D): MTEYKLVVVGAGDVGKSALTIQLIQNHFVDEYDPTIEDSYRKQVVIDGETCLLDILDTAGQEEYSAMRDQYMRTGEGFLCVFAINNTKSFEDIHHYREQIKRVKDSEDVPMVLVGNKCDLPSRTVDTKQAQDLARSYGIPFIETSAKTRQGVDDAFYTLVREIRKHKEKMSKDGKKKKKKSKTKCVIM
KRAS G13D, sequence (P62937 whole entry): as the sequence (P62937 whole entry) above
In short: as §2

KRAS Q61H = KRAS Q61H (Homo sapiens (Human), UniProt P01116+P62937, Q61H); assay: as above; format: biochemical
KRAS Q61H, sequence (P01116 other isoform, or with tags, fused parts or gaps Q61H): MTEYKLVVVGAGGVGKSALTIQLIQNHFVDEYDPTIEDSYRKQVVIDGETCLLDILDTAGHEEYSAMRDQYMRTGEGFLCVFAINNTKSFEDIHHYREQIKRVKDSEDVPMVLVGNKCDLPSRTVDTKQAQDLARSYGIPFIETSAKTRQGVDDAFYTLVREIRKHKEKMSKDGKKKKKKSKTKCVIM
KRAS Q61H, sequence (P62937 whole entry): as the sequence (P62937 whole entry) above
In short: as §2

KRAS WT = KRAS WT (Homo sapiens (Human), UniProt P01116+P62937); assay: as above; format: biochemical; conditions: read-out: KRAS WT FRET data IC50
KRAS WT, sequence (P01116 other isoform, or with tags, fused parts or gaps): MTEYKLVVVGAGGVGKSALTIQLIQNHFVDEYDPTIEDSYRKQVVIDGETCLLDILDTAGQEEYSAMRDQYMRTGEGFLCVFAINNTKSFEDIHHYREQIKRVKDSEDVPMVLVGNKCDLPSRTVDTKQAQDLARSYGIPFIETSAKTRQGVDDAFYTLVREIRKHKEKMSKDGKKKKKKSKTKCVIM
KRAS WT, sequence (P62937 whole entry): as the sequence (P62937 whole entry) above
In short: as §2

NRAS G12C = NRAS G12C (Homo sapiens (Human), UniProt P01111+P62937, G12C); assay: as above; format: biochemical; conditions: read-out: NRAS G12C FRET data IC50
NRAS G12C, sequence (P01111 whole entry G12C): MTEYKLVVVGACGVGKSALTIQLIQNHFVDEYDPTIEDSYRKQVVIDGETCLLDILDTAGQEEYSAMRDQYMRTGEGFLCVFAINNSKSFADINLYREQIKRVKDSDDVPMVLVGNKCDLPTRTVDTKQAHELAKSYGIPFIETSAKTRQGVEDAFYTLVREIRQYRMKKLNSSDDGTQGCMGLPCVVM
NRAS G12C, sequence (P62937 whole entry): as the sequence (P62937 whole entry) above
In short: (§3)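 Ras-GMPPNP (12.5 nM), BRAF RBD (50 nM) and 25 μM Cyclophilin A were incubated with compound for 3 h at 25° C, then detected 1.5 h with anti-His Eu and anti-GST APC; IC50 values follow from the reduced TR-FRET ratio.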

NRAS Q61K = NRAS Q61K (Homo sapiens (Human), UniProt P01111+P62937, Q61K); assay: as above; format: biochemical
NRAS Q61K, sequence (P01111 whole entry Q61K): as the sequence (P01111 whole entry G12C) above, with C12G, Q61K counted along it
NRAS Q61K, sequence (P62937 whole entry): as the sequence (P62937 whole entry) above
In short: as §3

NRAS Q61R = NRAS Q61R (Homo sapiens (Human), UniProt P01111+P62937, Q61R); assay: as above; format: biochemical
NRAS Q61R, sequence (P01111 whole entry Q61R): as the sequence (P01111 whole entry G12C) above, with C12G, Q61R counted along it
NRAS Q61R, sequence (P62937 whole entry): as the sequence (P62937 whole entry) above
In short: as §3

NRAS WT = NRAS WT (Homo sapiens (Human), UniProt P01111+P62937); assay: as above; format: biochemical
NRAS WT, sequence (P01111 whole entry): as the sequence (P01111 whole entry G12C) above, with C12G counted along it
NRAS WT, sequence (P62937 whole entry): as the sequence (P62937 whole entry) above
In short: as §3

NCI-H358 (K-Ras G12C) = assay: CellTiter-Glo cell viability assay, NCI-H358; format: cell-based, human; conditions: Homo sapiens, NCI-H358, 120 h, 5-day treatment; read-out: H358 Cell Viability assay data (K-Ras G12C, IC50)
In short: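 Viability read-out was luminescent (CellTiter-Glo) on day 5 of compound exposure in K-Ras G12C NCI-H358 cells. Values were expressed as percent of mean DMSO signal and fitted with a four-parameter logistic curve.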

[2] = target: K-Ras G12C(GMP-PNP) binding to BRAF RBD (Homo sapiens (Human), UniProt P01116+P62937, G12C); assay: Disruption of BRAF RBD interaction with K-Ras (FRET / MOA assay), K-Ras G12C; format: biochemical; conditions: read-out: KRAS G12C FRET IC50
K-Ras G12C(GMP-PNP) binding to BRAF RBD, sequence (P01116 other isoform, or with tags, fused parts or gaps G12C): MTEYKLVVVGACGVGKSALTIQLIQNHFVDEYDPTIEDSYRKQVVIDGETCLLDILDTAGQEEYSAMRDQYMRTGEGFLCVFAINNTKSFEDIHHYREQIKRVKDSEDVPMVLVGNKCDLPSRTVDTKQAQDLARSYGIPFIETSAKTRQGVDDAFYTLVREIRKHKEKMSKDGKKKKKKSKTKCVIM
K-Ras G12C(GMP-PNP) binding to BRAF RBD, sequence (P62937 whole entry): as the sequence (P62937 whole entry) above
In short: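 Compounds promote ternary complex of nucleotide-loaded Ras (here K-Ras G12C·GMP-PNP; other Ras mutants substituted) with cyclophilin A, disrupting BRAF RBD binding. 10-point 3-fold series from 30 μM final, 3 h at 25 °C, then anti-His Eu (10 nM) and anti-GST APC (50 nM) for 1.5 h. TR-FRET ratio decrease versus DMSO gave IC50.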

[3] = tested on: NCI-H358 cells (K-Ras G12C); assay: CellTiter-Glo cell viability, NCI-H358; format: cell-based, human; conditions: Homo sapiens, NCI-H358, 120 h, K-Ras G12C, 5-day treatment; read-out: H358 Cell Viability IC50
In short: as §1

Row | IC50 (KRAS G12C) | IC50 (KRAS G12D) | IC50 (KRAS G12S) | IC50 (KRAS G12V) | IC50 (KRAS G13C) | IC50 (KRAS G13D) | IC50 (KRAS Q61H) | IC50 (KRAS WT) | IC50 (NRAS G12C) | IC50 (NRAS Q61K) | IC50 (NRAS Q61R) | IC50 (NRAS WT) | IC50 (NCI-H358 (K-Ras G12C)) | IC50 [2] | IC50 [3] | Structure (SMILES) | IC50 [1]
1 | 100 to 1000 nM | 100 to 1000 nM | 100 to 1000 nM | 1000 to 10000 nM | 100 to 1000 nM | 100 to 1000 nM | 100 to 1000 nM | 100 to 1000 nM | 100 to 1000 nM | 100 to 1000 nM | 100 to 1000 nM | 100 to 1000 nM |  |  | 100 to 1000 nM | CCn1c(-c2cccnc2[C@H](C)OC)c2c3cc(ccc31)-c1csc(n1)C[C@H](NC(=O)[C@H](C(C)C)N(C)C(=O)N(C)C1CN(C)C1)C(=O)N1CCC[C@H](N1)C(=O)OCC(C)(C)C2 [Compound A611] | 100 to 1000 nM
2 | 10 to 100 nM | 100 to 1000 nM | 10 to 100 nM | 10 to 100 nM | 10 to 100 nM | 10 to 100 nM | 10 to 100 nM | 10 to 100 nM | 10 to 100 nM | 100 to 1000 nM | 100 to 1000 nM | 10 to 100 nM |  |  | 10 to 100 nM | CCn1c(-c2cccnc2[C@H](C)OC)c2c3cc(ccc31)-c1cc(O)cc(c1)C[C@H](NC(=O)[C@H](C(C)C)N(C)C(=O)[C@@]1(F)CCN(C(=O)OC)C1)C(=O)N1CCC[C@H](N1)C(=O)OCC(C)(C)C2 [Compound A615] | 10 to 100 nM

Second part, the compound before the results:

Row | Structure (SMILES) | IC50 (KRAS G12C) | IC50 (KRAS G12D) | IC50 (KRAS G12S) | IC50 (KRAS G12V) | IC50 (KRAS G13C) | IC50 (KRAS G13D) | IC50 (KRAS Q61H) | IC50 (KRAS WT) | IC50 (NRAS G12C) | IC50 (NRAS Q61K) | IC50 (NRAS Q61R) | IC50 (NRAS WT) | IC50 (NCI-H358 (K-Ras G12C)) | IC50 [2] | IC50 [3] | IC50 [1]
3 | CCn1c(-c2cccnc2[C@H](C)OC)c2c3cc(ccc31)-c1csc(n1)C[C@H](NC(=O)[C@H](C(C)C)N(C)C(=O)N(C)C[C@H]1CCCN1C)C(=O)N1CCC[C@H](N1)C(=O)OCC(C)(C)C2 [Compound A473] | 100 to 1000 nM | 1000 to 10000 nM | 100 to 1000 nM | 1000 to 10000 nM | 100 to 1000 nM | 100 to 1000 nM | 100 to 1000 nM | 100 to 1000 nM | 100 to 1000 nM | 1000 to 10000 nM | 1000 to 10000 nM | 100 to 1000 nM | 10 to 100 nM | 100 to 1000 nM |  | 100 to 1000 nM
4 | CCn1c(-c2cccnc2[C@H](C)OC)c2c3cc(ccc31)-c1csc(n1)C[C@H](NC(=O)[C@H](C(C)C)N(C)C(=O)N1CC[C@H]1CN(C)C)C(=O)N1CCC[C@H](N1)C(=O)OCC(C)(C)C2 [Compound A508] | 100 to 1000 nM | 1000 to 10000 nM | 100 to 1000 nM | 1000 to 10000 nM | 100 to 1000 nM | 1000 to 10000 nM | 100 to 1000 nM | 100 to 1000 nM | 100 to 1000 nM | 1000 to 10000 nM | 1000 to 10000 nM | 100 to 1000 nM | 100 to 1000 nM | 100 to 1000 nM | 100 to 1000 nM | 100 to 1000 nM
5 | CCn1c(-c2cccnc2[C@H](C)OC)c2c3cc(ccc31)-c1csc(n1)C[C@H](NC(=O)[C@H](C(C)C)N(C)C(=O)N1CCN(C)[C@@H](c3ccccc3)C1)C(=O)N1CCC[C@H](N1)C(=O)OCC(C)(C)C2 [Compound A524] | 100 to 1000 nM | 1000 to 10000 nM | 1000 to 10000 nM | 1000 to 10000 nM | 100 to 1000 nM | 1000 to 10000 nM | 100 to 1000 nM | 100 to 1000 nM | 100 to 1000 nM | 100 to 1000 nM | 1000 to 10000 nM | 100 to 1000 nM | 10 to 100 nM | 100 to 1000 nM | 100 to 1000 nM | 100 to 1000 nM
6 | CCn1c(-c2cccnc2[C@H](C)OC)c2c3cc(ccc31)-c1csc(n1)C[C@H](NC(=O)[C@H](C(C)C)N(C)C(=O)N(C)[C@H]1CCN(C)C1)C(=O)N1CCC[C@H](N1)C(=O)OCC(C)(C)C2 [Compound A563] | 100 to 1000 nM | 100 to 1000 nM | 100 to 1000 nM | 1000 to 10000 nM | 100 to 1000 nM | 100 to 1000 nM | 10 to 100 nM | 100 to 1000 nM | 100 to 1000 nM | 100 to 1000 nM | 100 to 1000 nM | 100 to 1000 nM | 100 to 1000 nM | 100 to 1000 nM | 10 to 100 nM | 10 to 100 nM
